Laboratory results taken from the supplement of paper PMC10307832.

Key:
Assay in all cases: relative viability (nuclei count vs DMSO), 5 days (fraction); higher = more cells survive
Vandetanib + Luminespib = compound: COc1cc2/c(=N/c3ccc(Br)cc3F)nc[nH]c2cc1OCC1CCN(C)CC1 [Vandetanib] + CCNC(=O)c1noc(-c2cc(C(C)C)c(O)cc2O)c1-c1ccc(CN2CCOCC2)cc1 [Luminespib] (partner 0.01 µM)
Method in brief: (§1)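 Relative viability is defined as nuclei in treated wells over nuclei in vehicle wells. Duplicate plates were run and medians reported. Lung cancer cell lines in 1536-well plates were dosed by pin tool one day after seeding, with one drug or with a fixed anchor-drug dose plus five library-drug doses (not always all listed) in √10 steps, and nuclei were counted after 5 days.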

Vandetanib + Pictilisib = compound: COc1cc2/c(=N/c3ccc(Br)cc3F)nc[nH]c2cc1OCC1CCN(C)CC1 [Vandetanib] + CS(=O)(=O)N1CCN(Cc2cc3nc(-c4cccc5[nH]ncc45)nc(N4CCOCC4)c3s2)CC1 [Pictilisib] (partner 1 µM)
Method in brief: as §1

Vandetanib + Foretinib = compound: COc1cc2/c(=N/c3ccc(Br)cc3F)nc[nH]c2cc1OCC1CCN(C)CC1 [Vandetanib] + COc1cc2c(Oc3ccc(NC(=O)C4(C(=O)Nc5ccc(F)cc5)CC4)cc3F)ccnc2cc1OCCCN1CCOCC1 [Foretinib] (partner 0.25 µM)
Method in brief: as §1

CUDC-101 + Crizotinib = compound: C#Cc1cccc(Nc2ncnc3cc(OC)c(OCCCCCCC(=O)NO)cc23)c1 [CUDC-101] + C[C@@H](Oc1cc(-c2cnn(C3CCNCC3)c2)cnc1N)c1c(Cl)ccc(F)c1Cl [Crizotinib] (partner 1 µM)
Method in brief: as §1

Cell Line: UMC-11
- relative viability (Vandetanib + Luminespib; first compound 0.02 µM): 1.06
- relative viability (Vandetanib + Luminespib; first compound 0.06325 µM): 1.01
- relative viability (Vandetanib + Luminespib; first compound 0.2 µM): 0.225
- relative viability (Vandetanib + Luminespib; first compound 0.6325 µM): 0.998
- relative viability (Vandetanib + Luminespib; first compound 2 µM): 1.03
- relative viability (Vandetanib + Pictilisib; first compound 0.02 µM): 0.75
- relative viability (Vandetanib + Pictilisib; first compound 0.06325 µM): 0.78
- relative viability (Vandetanib + Pictilisib; first compound 0.2 µM): 0.694
- relative viability (Vandetanib + Pictilisib; first compound 0.6325 µM): 0.667
- relative viability (Vandetanib + Pictilisib; first compound 2 µM): 0.857
- relative viability (Vandetanib + Foretinib; first compound 0.02 µM): 1.05
- relative viability (Vandetanib + Foretinib; first compound 0.06325 µM): 1.01
- relative viability (Vandetanib + Foretinib; first compound 0.2 µM): 0.281
- relative viability (Vandetanib + Foretinib; first compound 0.6325 µM): 0.962
- relative viability (Vandetanib + Foretinib; first compound 2 µM): 0.97
- relative viability (CUDC-101 + Crizotinib; first compound 0.01 µM): 0.67
- relative viability (CUDC-101 + Crizotinib; first compound 0.03162 µM): 0.577
- relative viability (CUDC-101 + Crizotinib; first compound 0.1 µM): 0.404
- relative viability (CUDC-101 + Crizotinib; first compound 0.3162 µM): 0.215
- relative viability (CUDC-101 + Crizotinib; first compound 1 µM): 0.136
